Results published in article PMC5030124 (Nature chemical biology, 2016).

How the values were obtained:
[1] = system: LNCaP-AR cells; assay: Prostate cancer cell proliferation assay, LNCaP-AR; details: 7 days, increasing doses, no R1881
[2] = system: AR recruitment to KLK3 and NKX3-1 regulatory regions in LNCaP-AR cells; assay: Chromatin immunoprecipitation assay, LNCaP-AR cells; type: cell-based; details: Enz 10 μM, Bic 10 μM, 10 20 μM, R1881 0.1 nM
[3] = system: AR target gene expression in LNCaP-AR cells; assay: Real-time PCR of AR target genes in LNCaP-AR cells; type: cell-based; details: CBs 20 μM, Enz 10 μM; for AR target gene expression, absence of R1881: Bic 10 μM
[4] = in vivo; details: NSG, mouse, ip
[5] = system: nuclear AR in HEK293 cells expressing wt-AR; assay: Cellular fractionation assay, HEK293 cells expressing wt-AR; type: cell-based; details: 4 hours, R1881 0.1 nM
[6] = system: AR subcellular distribution in HEK293 cells expressing wt-AR; assay: High content imaging of AR N/C ratio, HEK293 cells expressing wt-AR; details: R1881 0.1 nM, Enz 20 μM, 10 20 μM
[7] = system: AR subcellular distribution in VCaP cells; assay: High content imaging of AR N/C ratio, VCaP cells; details: R1881 0.1 nM, Enz 20 μM, 10 20 μM

Compound	cell growth of LNCaP-AR cells [1]	recruitment of AR to DNA (ChIP) [2]	AR target gene expression, absence of R1881 [3]	MTD [4] [mg/kg]	AR target gene expression, presence of R1881 ([3]; R1881 0.1 nM)	AR in nuclear and cytoplasmic fractions [5]	AR nuclear-to-cytoplasmic (N/C) ratio [6]	AR nuclear-to-cytoplasmic (N/C) ratio [7]
CC(O)(CS(=O)(=O)c1ccc(F)cc1)C(=O)Nc1ccc(C#N)c(C(F)(F)F)c1 (stereo not drawn) [Bic, bicalutamide]	promoted cellular proliferation	facilitated AR recruitment to DNA	partial agonist	–	–	–	–	–
CNC(=O)c1ccc(N2C(=S)N(c3ccc(C#N)c(C(F)(F)F)c3)C(=O)C2(C)C)cc1F [Enz, enzalutamide]	without effect	without effect	did not promote AR target gene transcription	15	reversed androgen-stimulated gene expression	–	–	–
C[C@]1(O)CC[C@H]2[C@@H]3CCC4=CC(=O)CCC4=C3C=C[C@@]21C [R1881]	–	facilitated AR recruitment to DNA	–	–	–	movement of AR from the cytoplasmic to nuclear fraction	increase in AR nuclear-to-cytoplasmic (N/C) ratio	increase in AR nuclear-to-cytoplasmic (N/C) ratio
